Measurements from publication PMC11748689, “Pharmacological and structural understanding of the Trypanosoma cruzi proteasome provides key insights for developing site-specific inhibitors” (The Journal of Biological Chemistry, 2024).

Legend:
[1] = tested on: intracellular T. cruzi Silvio X10/7 A1 amastigotes; assay: Intracellular T. cruzi assay; assay type: cell-based; details: Trypanosoma cruzi; 96 h compound treatment, Vero host cells; given as [mean pEC50, SD, N]; read-out: Mean pEC50 against intracellular T. cruzi parasites (converted)
Description: Potency against intracellular T. cruzi Silvio X10/7 A1 amastigotes was determined as described previously ([53]), with a sole modification that the compound treatment duration was 96 h instead of 72 h. Vero host cells were obtained from The European Collection of Authenticated Cell Cultures (cat. number 84113001) and tested for mycoplasma (negative). T. cruzi Silvio X10/7 A1 was obtained from Prof. Alan Fairlamb, and discrete typing unit confirmed by genotyping ([53]).

[2] = target: recombinant Δβ1Δβ2 mutant T. cruzi proteasome (chymotrypsin-like activity) (Trypanosoma cruzi, UniProt V5BU39+V5C017); assay: biochemical; assay type: biochemical
Description: (§1) Point mutations were created in individual subunits using overlapping PCR from the original templates using Polh and Tn7L primers outside the genes and suitable internal primers to introduce selected mutations. For Δβ1Δβ2, β1 Thr 55, and β2 Thr 67 were both mutated to Ala, the β4^R mutant was produced by mutating Phe 24 and Ile 29 to Leu and Met respectively in β4 subunit.
(§2) Chymotrypsin-, trypsin-, and caspase-like activity assays were performed using a commercially available Proteasome-Glo 3-substrate system assay kit (catalog number G8532) (Promega Corporation) according to the manufacturers protocols and as previously described ([24]).
(§3) Prior to running assays, Proteasome-Glo buffer was used to reconstitute the luciferin detection reagent (containing a recombinant thermostable luciferase enzyme). The resuspended luciferin detection reagent was then mixed with Proteasome-Glo chymotrypsin-, trypsin- or caspase-like substrates (either 40 μM suc-Leu-Leu-Val-Tyr-aminoluciferin, 30 μM Z-Leu-Arg-Arg-aminoluciferin (Z is benzyloxycarbonyl) or 40 μM Z-Nle-Pro-Nle-Asp-aminoluciferin respectively (these concentrations represent 2x final assay concentrations)). These substrate mixtures were allowed to incubate at room temperature for 60 min prior to use to allow the removal of any contaminating free aminoluciferin.
(§4) Proteasome assays were carried out using 384-well, white, low-volume plates (catalog number 784904) (Greiner Bio-One) at room temperature (∼23 °C) in 8 μl reaction volumes. When activity checks were to be run in the presence or absence of a fixed concentration of proteasome inhibitor, 80 nL of the inhibitor (at a concentration 100x the required final assay concentration), or 80 nL dimethylsulfoxide (DMSO), were dispensed into assay plates using an Echo 550 acoustic dispenser (Labcyte).
(§5) A 1 in 2 dilution series of the various T. cruzi proteasome samples (native, recombinant WT, β4^R mutant, and Δβ1Δβ2 mutant) were produced in assay buffer (50 mM Tris–HCl, pH 7.5, 10 mM sucrose, 5 mM MgCl2, 1 mM DTT, 2 mM ATP, 150 mM NaCl, 1 mM EDTA, and 0.05 mg/ml bovine serum albumin). Subsequently, 4 μl of the various concentrations of diluted proteasome were added to assay plates using an electronic multichannel pipette (Integra Biosciences Ltd). When kinetic read activity checks were performed (Fig. 2), proteasome final assay concentrations used were 115 μg/ml, 115 μg/ml, and 230 μg/ml native proteasome (in the chymotrypsin, trypsin, and caspase assays, respectively), and 4.1 μg/ml, 3.4 μg/ml, or 1.4 μg/ml recombinant WT proteasome (in the chymotrypsin, trypsin, and caspase assays, respectively). When activity checks were to be run in the presence or absence of a proteasome inhibitor plates containing inhibitor or DMSO control were incubated with the relevant proteasome sample for 60 min at room temperature (this step was not included in activity check experiments where compounds were not used).
(§6) Following the 60 min incubation of proteasome and compound (if required), assays were initiated with the addition of 4 μl of substrate mix (containing substrate and the luciferin detection reagent) using an electronic multichannel pipette. Final assay concentrations of substrates used were either 20 μM Suc-Leu-Leu-Val-Tyr-aminoluciferin, 15 μM Z-Leu-Arg-Arg-aminoluciferin, or 20 μM Z-Nle-Pro-Nle-Asp-aminoluciferin for chymotrypsin-, trypsin- or caspase-like activity respectively.
(§7) Luminescence was read either kinetically or as an endpoint read using an EnVision 2102 Multilabel Reader (PerkinElmer, Inc) with 0.2 s per well reading time. When kinetic assays were run, luminescence was read every 5 min for 90 min. Endpoint assays were run for 60 min before luminescence was read. All data processing and linear fit analyses were performed using Microsoft Excel for Microsoft 365 software (Redmond, Washington; https://www.microsoft.com/).

[3] = target: recombinant β4^R mutant T. cruzi proteasome (chymotrypsin-like activity) (Trypanosoma cruzi, UniProt V5BU39+V5C017, F24L/I29M); assay: biochemical; assay type: biochemical
Description: as §1, §2, §3, §4, §5, §6, §7

[4] = target: native T. cruzi proteasome (chymotrypsin-like activity, β5) (Trypanosoma cruzi, UniProt V5BU39+V5C017); assay: Chymotrypsin-like activity assay (Proteasome-Glo), native T. cruzi proteasome; assay type: biochemical
Description: as §2, §3
When proteasome inhibitors were to be screened in the chymotrypsin, trypsin, and caspase assays, test compounds were dispensed into assay wells using an ECHO 550 acoustic dispenser (Labcyte) (final DMSO concentration 1%). Compounds were tested in either a 10-point concentration series (30 μM top final assay concentration, 1 in 3 dilution series) or a 12-point concentration series (30 μM top final assay concentration, 1 in 2.5 dilution series).
Proteasome assays were then performed as described above using Promega Proteasome-Glo 3-substrate system assay kit. […] Diluted proteasome (4 μl) was added to assay plates using an electronic multichannel pipette (Integra Biosciences Ltd) and the proteasome incubated with compound for 60 min at room temperature.
Following the 60 min incubation of proteasome and compounds, assays were initiated with the addition of 4 μl of a substrate mix (containing substrate and the luciferin detection reagent) using an electronic multichannel pipette. Final assay concentrations of substrates used were either 20 μM Suc-Leu-Leu-Val-Tyr-aminoluciferin, 15 μM Z-Leu-Arg-Arg-aminoluciferin, or 20 μM Z-Nle-Pro-Nle-Asp-aminoluciferin for chymotrypsin-, trypsin-, or caspase-like activity, respectively. Following a further 60 min assay incubation, luminescence was read using an EnVision 2102 Multilabel Reader (PerkinElmer, Inc) with 0.2 s per well reading time.
All data processing was performed using Microsoft Excel for Microsoft 365 software.
Nonlinear dose-response curve fitting was carried out using the Microsoft Excel add-in, XLfit (IDBS). Percentage inhibition data were either fitted to a standard 4-parameter logistic fit model (XLfit model 205; Equation 2) or a biphasic model (either XLfit model 300; Equation 3 or a custom biphasic model; Equation 4 (used in cases where the top and/or bottom parameters deviated from 100%/0% inhibition)).(2) y=A+(B−A)/1+(C/x)^D Where A = % inhibition at bottom, B = % inhibition at top, C = IC50, D = slope, x = inhibitor concentration and y = % inhibition.(3) y=(A/(1+10^(C−log(x))∗B))+((100−A)/(1+10^(D−log(x))∗B)) With A = % inhibition at midplateau, B = slope, C = log(IC50^A), D = log(IC50^B)).
All IC50 data generated were converted to pIC50 using Equation 5.

In the case of `O=C(Nc1ccc(F)c(-c2cn3nc(-c4ccccc4)cnc3n2)c1)N1CCCC1` [DDD01012248], the EC50 [1] is reported as 0.02 µM, the IC50 [2] is reported as 0.0417 µM and the “inhibition of chymotrypsin activity, Δβ1Δβ2 mutant, fixed concentration” value ([2]; 1 μM compound (Fig. 7B)) is reported as “full inhibition”. The IC50 [3] was 2 µM, the “inhibition of chymotrypsin activity, β4^R mutant, fixed concentration” value ([3]; 1 μM compound (Fig. 7C)) was “no notable inhibition” and the IC50 [4] was 0.0309 µM.

`O=C(Nc1ccc(F)c(C(=O)NC2CC2)c1)c1ccc(COc2ccccc2)o1` [DDD02091966, N-(3-(cyclopropylcarbamoyl)-4-fluorophenyl)-5-(phenoxymethyl)furan-2-carboxamide] was tested, and the EC50 [1] was 0.251 µM, the IC50 [2] was 0.0457 µM and the “extent of inhibition in chymotrypsin dose-response curve, Δβ1Δβ2 mutant” value ([2]; top of dose-response curve) was “unable to fully inhibit”. For the same molecule, the IC50 [3] was over 30.2 µM and the IC50 [4] was 0.038 µM.
